Patent US20260216183A1 (SHENZHEN NEWDEL BIOTECH CO., LTD., priority 2023, published 2026)

Tests used:
[1] = Mouse body weight change in the oral administration experiment; type: in vivo, Balb/c mice; settings: vs group 2 (vehicle)
Description: (§1) (1) Screening and grouping: 60 female 6- to 8-week-old Balb/c mice in total were used as experimental animals in this project, which were obtained from Shanghai Model Organisms Center, Inc. The first grouping was done before the start of the experiment. […] (2) Animal modeling: The day when the first grouping was done was designated as day (−7). The backs of the mice were depilated with depilatory cream (area of about 2 cm×3 cm). […] The 1% OXA solution was prepared by weighing 0.1 g of OXA powder, adding 10 mL of an acetone solution, mixing well, and dissolving. […] (3) The administration mode of the test substance: […] The mice were sacrificed on day 21. The skin of the right ear of the mice was left for pathological examination. The thickness of the epidermal layer and inflammatory cell infiltration were measured by H&E staining, and the thickness of the dermis layer was measured by Masson staining.

[2] = target: T1, CSF1R (Homo sapiens, UniProt P07333); assay: CSF1R enzyme activity assay (HTRF); type: biochemical; settings: ATP 25 μM
T1 construct: purchased Carna 08-114
T1 sequence (P07333 538-972 limits assumed): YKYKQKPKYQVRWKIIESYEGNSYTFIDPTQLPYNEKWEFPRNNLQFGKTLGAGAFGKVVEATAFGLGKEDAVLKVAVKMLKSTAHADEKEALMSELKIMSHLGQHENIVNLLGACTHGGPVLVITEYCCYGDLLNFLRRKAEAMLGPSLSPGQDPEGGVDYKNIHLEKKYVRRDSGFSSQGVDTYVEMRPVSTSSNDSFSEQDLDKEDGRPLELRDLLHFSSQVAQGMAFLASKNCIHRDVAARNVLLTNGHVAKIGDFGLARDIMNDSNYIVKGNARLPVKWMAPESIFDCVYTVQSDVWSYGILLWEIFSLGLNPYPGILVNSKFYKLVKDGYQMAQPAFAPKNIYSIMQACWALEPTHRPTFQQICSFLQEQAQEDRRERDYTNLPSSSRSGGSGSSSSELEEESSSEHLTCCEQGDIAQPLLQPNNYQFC
Description: (§2) A kinase phosphorylates a substrate, and an antibody labeled with Eu-CryPtate binds to a phosphorylation site in the substrate; streptavidin-XL665 binds to the substrate biotin; when Eu and XL665 are close, Eu as a donor emits emission light (620 nm) after being excited by a light source (320 nm) and transfers energy resonance to a close XL665 receptor, and the receptor emits emission light (665 nm) after being excited; the specific signal is proportional to the phosphorylated substrate; when an inhibitor is added, the phosphorylation level is inhibited, the emission light at 665 nm is undetectable, and only the emission light at 620 nm is detected, so as to evaluate the level of inhibition of kinase activity by the compound.
Replicate wells were set for the assay. […] 2.5 μL of CSF1R (1.3 nM, 08-114, Carna) solution was transferred to a 384 reaction plate. The plate was centrifuged at 1000 rpm for 60 s using a centrifuge and incubated at 25° C. for 10 min. A mixed solution of 2× biotin-labeled tyrosine kinase substrate (1 μM) and ATP (25 μM) was prepared using the kinase reaction buffer. […] The fluorescence signals at 620 nm (Cryptate) and 665 nm (XL665) were read using a BMG microplate reader. The ratio of the fluorescence signals, i.e., (665 nm/620 nm)×10000, in each well was calculated, and the ratio represented the degree of the kinase activity.

[3] = target: T2, TRKC (Homo sapiens, UniProt Q16288); assay: TRKC enzyme activity assay (HTRF); type: biochemical; settings: ATP 25 μM
T2 construct: purchased Carna 08-197
Description: as §2
Replicate wells were set for the assay. […] 2.5 μL of TRKC (1.5 nM, 08-197, Carna) solution was transferred to a 384 reaction plate. The plate was centrifuged at 1000 rpm for 60 s using a centrifuge and incubated at 25° C. for 10 min. A mixed solution of 2× biotin-labeled tyrosine kinase substrate (1 μM) and ATP (25 μM) was prepared using the kinase reaction buffer. […] The fluorescence signals at 620 nm (Cryptate) and 665 nm (XL665) were read using a BMG microplate reader. The ratio of the fluorescence signals, i.e., (665 nm/620 nm)×10000, in each well was calculated, and the ratio represented the degree of the kinase activity.

[4] = target: T3, DDR2 (Homo sapiens, UniProt Q16832); assay: DDR2 enzyme activity assay (HTRF); type: biochemical; settings: ATP 25 μM
T3 sequence (Q16832 22-855): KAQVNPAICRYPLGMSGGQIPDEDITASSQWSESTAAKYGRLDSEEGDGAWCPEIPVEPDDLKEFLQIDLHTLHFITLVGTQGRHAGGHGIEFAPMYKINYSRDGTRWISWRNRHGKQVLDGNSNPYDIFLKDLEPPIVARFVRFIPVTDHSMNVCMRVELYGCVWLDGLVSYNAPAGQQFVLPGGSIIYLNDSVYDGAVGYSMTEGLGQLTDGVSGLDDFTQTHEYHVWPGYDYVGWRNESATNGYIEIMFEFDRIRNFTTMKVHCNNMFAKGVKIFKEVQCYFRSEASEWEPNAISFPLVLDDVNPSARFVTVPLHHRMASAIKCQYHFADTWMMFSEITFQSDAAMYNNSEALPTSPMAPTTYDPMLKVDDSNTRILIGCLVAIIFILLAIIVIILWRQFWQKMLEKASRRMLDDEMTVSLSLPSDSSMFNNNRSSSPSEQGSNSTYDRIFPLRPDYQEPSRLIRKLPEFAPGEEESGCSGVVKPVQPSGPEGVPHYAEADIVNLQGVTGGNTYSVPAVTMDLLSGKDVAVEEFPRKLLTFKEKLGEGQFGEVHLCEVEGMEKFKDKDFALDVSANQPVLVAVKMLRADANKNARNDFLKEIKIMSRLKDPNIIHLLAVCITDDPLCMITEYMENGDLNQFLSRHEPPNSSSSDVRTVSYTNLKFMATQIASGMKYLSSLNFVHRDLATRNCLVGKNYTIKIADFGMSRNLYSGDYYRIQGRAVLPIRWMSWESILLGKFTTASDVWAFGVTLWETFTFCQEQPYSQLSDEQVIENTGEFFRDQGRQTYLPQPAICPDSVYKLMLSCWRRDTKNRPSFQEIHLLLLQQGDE
Description: Replicate wells were set for the assay. […] 2.5 μL of DDR2 (1.3 nM, 08-114, Carna) solution was transferred to a 384 reaction plate. The plate was centrifuged at 1000 rpm for 60 s using a centrifuge and incubated at 25° C. for 10 min. A mixed solution of 2× biotin-labeled tyrosine kinase substrate (1 μM) and ATP (25 μM) was prepared using the kinase reaction buffer. 2.5 μL of the mixed solution of the substrate and ATP was added to the reaction plate to start the reaction, and the plate was centrifuged at 1000 rpm for 60 s using the centrifuge. The plate was sealed with a plate-sealing film and incubated at 25° C. for 40 min. 5 μL of a mixed solution of Eu-CryPtate-labeled anti-tyrosine kinase antibody and streptavidin-XL665 was added to each well of the reaction plate. The plate was centrifuged at 1000 rpm for 1 min and incubated at 25° C. for 60 min. The fluorescence signals at 620 nm (Cryptate) and 665 nm (XL665) were read using a BMG microplate reader. The ratio of the fluorescence signals, i.e., (665 nm/620 nm)×10000, in each well was calculated, and the ratio represented the degree of the kinase activity.

[5] = tested on: OXA-induced atopic dermatitis mouse model; assay: OXA-induced atopic dermatitis mouse model, oral administration; type: in vivo, Balb/c mice; settings: for Inflammatory cell content in right ear tissue, Significance level: compared to G2 (vehicle); for Clinical scores of dorsal skin, Significance level / Rate of change in the thickness of the pinna of the right ear, Significance level / Thickness of dermis layer of right ear, Significance level / Thickness of epidermal layer of right ear, Significance level / Pinna thickness change rate at time point, Significance level: vs group 2 (vehicle); for Number of inflammatory cells per mm: right ear tissue, Mean ± SEM
Description: as §1

[6] = target: T4, DDR1 (Homo sapiens, UniProt Q08345); assay: DDR1 enzyme activity assay (HTRF); type: biochemical; settings: ATP 25 μM
T4 construct: purchased Carna 08-113
Description: as §2
Replicate wells were set for the assay. […] 2.5 μL of DDR1 (2.7 nM, 08-113, Carna) solution was transferred to a 384 reaction plate. The plate was centrifuged at 1000 rpm for 60 s using a centrifuge and incubated at 25° C. for 10 min. A mixed solution of 2× biotin-labeled tyrosine kinase substrate (1 μM) and ATP (25 μM) was prepared using the kinase reaction buffer. […] The fluorescence signals at 620 nm (Cryptate) and 665 nm (XL665) were read using a BMG microplate reader. The ratio of the fluorescence signals, i.e., (665 nm/620 nm)×10000, in each well was calculated, and the ratio represented the degree of the kinase activity.

[7] = target: T5, TRKA (Homo sapiens, UniProt P04629); assay: TRKA enzyme activity assay (HTRF); type: biochemical; settings: ATP 25 μM
T5 construct: purchased Carna 08-186
T5 sequence (P04629 33-796): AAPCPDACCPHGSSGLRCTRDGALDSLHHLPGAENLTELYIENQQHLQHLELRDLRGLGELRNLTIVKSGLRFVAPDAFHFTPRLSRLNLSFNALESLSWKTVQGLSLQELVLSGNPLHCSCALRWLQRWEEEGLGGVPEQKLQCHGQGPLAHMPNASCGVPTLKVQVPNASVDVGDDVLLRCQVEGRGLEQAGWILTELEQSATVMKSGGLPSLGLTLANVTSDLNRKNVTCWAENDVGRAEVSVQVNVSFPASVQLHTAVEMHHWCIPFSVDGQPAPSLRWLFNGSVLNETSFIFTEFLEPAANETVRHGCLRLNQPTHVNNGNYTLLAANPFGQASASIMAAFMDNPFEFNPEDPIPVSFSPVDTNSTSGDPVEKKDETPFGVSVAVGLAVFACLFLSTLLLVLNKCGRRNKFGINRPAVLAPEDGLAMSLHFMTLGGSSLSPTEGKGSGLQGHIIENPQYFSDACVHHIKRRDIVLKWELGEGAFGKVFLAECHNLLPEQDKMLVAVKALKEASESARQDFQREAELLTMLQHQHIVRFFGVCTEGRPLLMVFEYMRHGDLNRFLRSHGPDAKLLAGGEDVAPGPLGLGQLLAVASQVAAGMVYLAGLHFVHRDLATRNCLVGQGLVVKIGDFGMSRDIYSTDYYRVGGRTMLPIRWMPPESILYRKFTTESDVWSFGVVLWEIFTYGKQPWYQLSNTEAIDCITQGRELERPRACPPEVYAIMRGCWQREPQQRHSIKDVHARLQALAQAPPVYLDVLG
Description: as §2
Replicate wells were set for the assay. 25 nL of the compound was transferred to a 384 reaction plate (Catalog No. 784075, Greiner) using Echo 665. […] 2.5 μL of TRKA (1.5 nM, 08-186, Carna) solution was transferred to a 384 reaction plate. The plate was centrifuged at 1000 rpm for 60 s using a centrifuge and incubated at 25° C. for 10 min. […] The fluorescence signals at 620 nm (Cryptate) and 665 nm (XL665) were read using a BMG microplate reader. The ratio of the fluorescence signals, i.e., (665 nm/620 nm)×10000, in each well was calculated, and the ratio represented the degree of the kinase activity.

T2 sequence (Q16288 32-839): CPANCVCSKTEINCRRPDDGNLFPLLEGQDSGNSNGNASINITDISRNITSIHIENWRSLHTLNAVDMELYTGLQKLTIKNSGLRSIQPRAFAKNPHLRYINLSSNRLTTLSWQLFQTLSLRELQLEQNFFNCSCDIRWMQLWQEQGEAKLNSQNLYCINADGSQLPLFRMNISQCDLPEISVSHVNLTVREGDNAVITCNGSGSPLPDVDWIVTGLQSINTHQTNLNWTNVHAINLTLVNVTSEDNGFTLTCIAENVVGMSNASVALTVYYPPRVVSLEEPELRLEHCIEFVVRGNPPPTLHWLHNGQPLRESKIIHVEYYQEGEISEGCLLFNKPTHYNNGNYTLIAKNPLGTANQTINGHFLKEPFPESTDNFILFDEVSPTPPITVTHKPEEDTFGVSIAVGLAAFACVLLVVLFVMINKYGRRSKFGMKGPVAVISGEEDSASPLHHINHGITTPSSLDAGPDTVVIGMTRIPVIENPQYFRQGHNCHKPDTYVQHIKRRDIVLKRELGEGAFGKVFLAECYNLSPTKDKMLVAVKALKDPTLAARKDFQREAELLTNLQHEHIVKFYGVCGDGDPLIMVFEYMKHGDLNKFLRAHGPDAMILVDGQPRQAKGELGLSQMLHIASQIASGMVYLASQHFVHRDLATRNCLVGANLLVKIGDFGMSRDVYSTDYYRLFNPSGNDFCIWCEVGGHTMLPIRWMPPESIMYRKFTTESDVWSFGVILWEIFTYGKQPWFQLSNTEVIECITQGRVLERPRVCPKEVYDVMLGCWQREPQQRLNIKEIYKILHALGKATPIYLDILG
T4 sequence (Q08345 19-913): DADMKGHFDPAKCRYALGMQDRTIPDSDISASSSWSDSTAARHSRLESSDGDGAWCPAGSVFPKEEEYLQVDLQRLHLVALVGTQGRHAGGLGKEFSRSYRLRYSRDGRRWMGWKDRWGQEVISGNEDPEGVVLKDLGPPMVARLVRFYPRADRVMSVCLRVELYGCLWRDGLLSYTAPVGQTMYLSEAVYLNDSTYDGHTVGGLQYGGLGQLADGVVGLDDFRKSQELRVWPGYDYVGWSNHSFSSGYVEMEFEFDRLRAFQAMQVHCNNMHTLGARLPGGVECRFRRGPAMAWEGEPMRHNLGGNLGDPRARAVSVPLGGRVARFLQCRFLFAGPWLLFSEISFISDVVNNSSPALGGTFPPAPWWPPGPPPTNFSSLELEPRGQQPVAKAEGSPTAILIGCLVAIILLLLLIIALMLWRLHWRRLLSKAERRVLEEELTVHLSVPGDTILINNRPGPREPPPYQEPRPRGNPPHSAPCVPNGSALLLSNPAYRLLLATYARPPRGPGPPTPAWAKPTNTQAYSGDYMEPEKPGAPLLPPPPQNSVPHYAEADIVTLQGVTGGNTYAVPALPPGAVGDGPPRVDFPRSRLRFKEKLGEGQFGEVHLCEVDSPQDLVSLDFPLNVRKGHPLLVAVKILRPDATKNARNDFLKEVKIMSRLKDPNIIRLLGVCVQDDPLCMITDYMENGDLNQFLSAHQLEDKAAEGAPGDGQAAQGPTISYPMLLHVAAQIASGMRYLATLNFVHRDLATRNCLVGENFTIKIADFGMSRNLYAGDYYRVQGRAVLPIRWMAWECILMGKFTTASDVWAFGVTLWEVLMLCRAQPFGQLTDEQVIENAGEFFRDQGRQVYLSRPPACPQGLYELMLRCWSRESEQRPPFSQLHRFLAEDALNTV

## Cc1c(C#Cc2cnc3ccc(N4CCC(O)CC4)nn23)cccc1C(=O)Nc1cc(Cl)cc(C(F)(F)F)c1 [compound 1, N-(3-chloro-5-(trifluoromethyl)phenyl)-3-((6-(4-hydroxypiperidin-1-yl)imidazo[1,2-b]pyridazin-3-yl)ethynyl)-2-methylbenzamide]
[1]; 3 mpk p.o. once daily 22 days
  Rate of change in body weight, Significance level: ** (**p<0.01)
[1]; 10 mpk p.o. once daily 22 days
  Rate of change in body weight, Significance level: ns (p>0.05)
[1]; 30 mpk p.o. once daily 22 days
  Rate of change in body weight, Significance level: ns (p>0.05)
[2]
  IC50: 14.7 nM
[3]
  IC50: 0.35 nM
[4]
  IC50: 37.9 nM
[5]; 3 mpk p.o. once daily 22 days
  Inflammatory cell content in right ear tissue, Significance level: *** (***p<0.001)
  Clinical scores of dorsal skin, Significance level: ns (p>0.05)
  Rate of change in the thickness of the pinna of the right ear, Significance level: * (*p<0.05)
  Thickness of dermis layer of right ear, Significance level: **** (****p<0.0001)
  Thickness of epidermal layer of right ear, Significance level: * (*p<0.05)
  Number of inflammatory cells per mm: 189 ± 27.25 cells per mm
[5]; 10 mpk p.o. once daily 22 days
  Inflammatory cell content in right ear tissue, Significance level: *** (***p<0.001)
  Clinical scores of dorsal skin, Significance level: * (*p<0.05)
  Rate of change in the thickness of the pinna of the right ear, Significance level: **** (****p<0.0001)
  Thickness of dermis layer of right ear, Significance level: **** (****p<0.0001)
  Thickness of epidermal layer of right ear, Significance level: * (*p<0.05)
  Number of inflammatory cells per mm: 162 ± 18.31 cells per mm
[5]; 30 mpk p.o. once daily 22 days
  Inflammatory cell content in right ear tissue, Significance level: *** (***p<0.001)
  Clinical scores of dorsal skin, Significance level: *** (***p<0.001)
  Rate of change in the thickness of the pinna of the right ear, Significance level: **** (****p<0.0001)
  Thickness of dermis layer of right ear, Significance level: **** (****p<0.0001)
  Thickness of epidermal layer of right ear, Significance level: * (*p<0.05)
  Number of inflammatory cells per mm: 160 ± 34.18 cells per mm
[5]; day 3, 3 mpk p.o. once daily
  Pinna thickness change rate at time point, Significance level: ns (p>0.05)
[5]; day 3, 10 mpk p.o. once daily
  Pinna thickness change rate at time point, Significance level: ns (p>0.05)
[5]; day 3, 30 mpk p.o. once daily
  Pinna thickness change rate at time point, Significance level: ** (**p<0.01)
[5]; day 5, 3 mpk p.o. once daily
  Pinna thickness change rate at time point, Significance level: ns (p>0.05)
[5]; day 5, 10 mpk p.o. once daily
  Pinna thickness change rate at time point, Significance level: ns (p>0.05)
[5]; day 5, 30 mpk p.o. once daily
  Pinna thickness change rate at time point, Significance level: ** (**p<0.01)
[5]; day 7, 3 mpk p.o. once daily
  Pinna thickness change rate at time point, Significance level: ns (p>0.05)
[5]; day 7, 10 mpk p.o. once daily
  Pinna thickness change rate at time point, Significance level: ns (p>0.05)
[5]; day 7, 30 mpk p.o. once daily
  Pinna thickness change rate at time point, Significance level: ** (**p<0.01)
[5]; day 10, 3 mpk p.o. once daily
  Pinna thickness change rate at time point, Significance level: * (*p<0.05)
[5]; day 10, 10 mpk p.o. once daily
  Pinna thickness change rate at time point, Significance level: ** (**p<0.01)
[5]; day 10, 30 mpk p.o. once daily
  Pinna thickness change rate at time point, Significance level: ** (**p<0.01)
[5]; day 12, 3 mpk p.o. once daily
  Pinna thickness change rate at time point, Significance level: ns (p>0.05)
[5]; day 12, 10 mpk p.o. once daily
  Pinna thickness change rate at time point, Significance level: ns (p>0.05)
[5]; day 12, 30 mpk p.o. once daily
  Pinna thickness change rate at time point, Significance level: ** (**p<0.01)
[5]; day 14, 3 mpk p.o. once daily
  Pinna thickness change rate at time point, Significance level: ns (p>0.05)
[5]; day 14, 10 mpk p.o. once daily
  Pinna thickness change rate at time point, Significance level: ** (**p<0.01)
[5]; day 14, 30 mpk p.o. once daily
  Pinna thickness change rate at time point, Significance level: ** (**p<0.01)
[5]; day 17, 3 mpk p.o. once daily
  Pinna thickness change rate at time point, Significance level: ns (p>0.05)
[5]; day 17, 10 mpk p.o. once daily
  Pinna thickness change rate at time point, Significance level: ns (p>0.05)
[5]; day 17, 30 mpk p.o. once daily
  Pinna thickness change rate at time point, Significance level: * (*p<0.05)
[5]; day 19, 3 mpk p.o. once daily
  Pinna thickness change rate at time point, Significance level: ns (p>0.05)
[5]; day 19, 10 mpk p.o. once daily
  Pinna thickness change rate at time point, Significance level: ** (**p<0.01)
[5]; day 19, 30 mpk p.o. once daily
  Pinna thickness change rate at time point, Significance level: *** (***p<0.001)
[5]; day 21, 3 mpk p.o. once daily
  Pinna thickness change rate at time point, Significance level: ns (p>0.05)
[5]; day 21, 10 mpk p.o. once daily
  Pinna thickness change rate at time point, Significance level: ** (**p<0.01)
[5]; day 21, 30 mpk p.o. once daily
  Pinna thickness change rate at time point, Significance level: *** (***p<0.001)
[6]
  IC50: 0.762 nM
[7]
  IC50: 4.4 nM
